The test system of this experiment is HRE/Luc/HEK293 cells. Nature of the experiment: HRE (Hypoxia Response Element) luciferase assay. In kind it is cell-based, human. The conditions noted are these: for fold induction at 10 µM / fold induction at 100 µM: Homo sapiens; for HRE expression: low concentration of 1 µM; for HRE assay: increase in HRE expression levels by the test substance relative to the vehicle in HRE/Luc/HEK293 cells. The method, then: • (a) HRE assay: Confirmation of increased in HRE expression levels by the test substance relative to the vehicle in HRE/Luc/HEK293 cells • * Less than a twofold increase at 100 µM, • ** More than a twofold increase at 100 µM, • *** More than a twofold increase at 10 µM, • **** More than a twofold increase at 1 µM, • Not performed.
It has been reported that in the brains of AD patients, blood supply is mostly insufficient, resulting in oxygen levels being up to 50% lower than those of normal individuals, leading to increased oxidative stress (ROS) and neuroinflammation. It has also been studied that when the HIF-1α (hypoxia inducible factor-1) factor binds to the HRE (hypoxia response element), it increases VEGF (vascular endothelial growth factor), which promotes the formation of new blood vessels, thereby increasing oxygen levels in the brain and helping to inhibit nerve cell damage.
A reporter gene containing luciferase, capable of verifying the level of HRE expression, was inserted into HEK-293 human embryonic kidney cells, and HRE/Luc/HEK293 cells were constructed by inserting a plasmid (HRE/Luc) with luciferase attached downstream of the HRE promoter that binds to HIF-1α using lipofectamine (Invitrogen).
To perform HRE luciferase analysis, HRE/Luc/HEK293 cells were seeded in 96-well culture plates at a cell density of 4 x 10^4 per well in minimal essential medium (MEM) containing 10% fetal bovine serum. After one day, the cell medium was removed and replaced with medium mixed with various concentrations of example compounds. Six hours after compound pretreatment, HRE/Luc/HEK293 cells were cultured under hypoxic conditions (O2 0.1%) for 18 hours. Subsequently, the cells were washed with phosphate buffer, lysed with lysis buffer, and then the luciferase reagent (Promega) for luciferase analysis was added. Afterward, changes in HRE expression levels associated with HIF-1 signaling were evaluated by measuring luminescence using an Infinite200 (Tecan).

The mark [1] stands for this setting: HEK293, 18 h, Table 2 (Examples 37-74, 52), read-out: HKt-increasing 10uM.
Where [2] appears, read: HEK293, 18 h, Table 2 (Examples 37-74, 52), read-out: HKt-increasing 100uM.
Setting [3] is: HEK293, 18 h, Table 2 (Examples 75-109, 114), read-out: HRE-inceasing 10uM.
[4] abbreviates: HEK293, 18 h, Table 2 (Examples 75-109, 114), read-out: HRE-inceasing 100uM.
[5] abbreviates: HEK293, fold increase of HRE expression, hypoxic conditions (O2 0.1%) 18 hours, Table 2, read-out: HRE-increasing 10uM.
Where [6] appears, read: HEK293, fold increase of HRE expression, hypoxic conditions (O2 0.1%) 18 hours, Table 2, read-out: HRE-increasing 100uM.

Like-named read-outs stand apart in the source and are kept apart here.

For `CC(C)c1ccc(Cc2ccc(O[C@H]3OC[C@@H](O)[C@H](O)[C@H]3O)cc2)cc1` [Example 43, (2R,3R,4S,5R)-2-(4-(4-isopropylbenzyl)phenoxy)tetrahydro-2H-pyran-3,4,5-triol], the HRE expression entry is listed as “more than threefold”. Moreover, under setting [1], the fold induction at 10 µM turned out to be 3.3. Also, the fold induction at 100 µM under setting [2] was 2.5.
Turning to `COc1ccc(Cc2ccc(O[C@H]3OC[C@H](O)[C@H](O)[C@H]3O)cc2Cl)cc1` [Example 38, (2R,3R,4S,5S)-2-(3-chloro-4-(4-methoxybenzyl)phenoxy)tetrahydro-2H-pyran-3,4,5-triol], under setting [1], the fold induction at 10 µM was found to be 1.3. In addition, the fold induction at 100 µM under setting [2] was 2.2.
For the compound `COc1ccc2oc(-c3ccc(O[C@@H]4OC[C@H](O)[C@H](O)[C@H]4O)cc3)nc2c1` [Example 92, (2S,3R,4S,5S)-2-(4-(5-methoxybenzo[d]oxazol-2-yl)phenoxy)tetrahydro-2H-pyran-3,4,5-triol], the HRE expression entry is recorded as “more than threefold”. The fold induction at 10 µM under setting [3] came out at 3. For the same compound, the fold induction at 100 µM under setting [4] was found to be 1.6.
Consider `CC(C)c1ccc(Oc2ccc(O[C@H]3OC[C@H](O)[C@H](O)[C@@H]3F)cc2)cc1` [Example 65, (3S,4S,5S,6R)-5-fluoro-6-(4-(4-isopropylphenoxy)phenoxy)tetrahydro-2H-pyran-3,4-diol], for which the fold induction at 10 µM under setting [1] was determined as 2.6. For the same compound, under setting [2], the fold induction at 100 µM turned out to be 2.4.
As for `CC(C)c1ccc(Oc2ccc(O[C@H]3OC[C@H](O)[C@H](O)[C@H]3N)cc2)cc1` [Example 70, (3S,4R,5R,6R)-5-amino-6-(4-(4-isopropylphenoxy)phenoxy)tetrahydro-2H-pyran-3,4-diol], the fold induction at 10 µM under setting [1] was found to be 1.2. Besides, the fold induction at 100 µM under setting [2] was found to be 3.1.
`CC(C)c1ccc(Oc2ccc(O[C@H]3OC[C@H](O)[C@H](O)[C@H]3O)c(F)c2)cc1` [Example 68, (2R,3R,4S,5S)-2-(2-fluoro-4-(4-isopropylphenoxy)phenoxy)tetrahydro-2H-pyran-3,4,5-triol]: the HRE expression entry is given as “more than threefold”. In addition, under setting [1], the fold induction at 10 µM was determined as 4.3. Under setting [2], the fold induction at 100 µM came to 4.4.
`CCc1ccc2c(-c3ccc(O[C@H]4OC[C@H](O)[C@H](O)[C@H]4O)cc3)coc2c1` [Example 95, (2R,3R,4S,5S)-2-(4-(6-ethylbenzofuran-3-yl)phenoxy) tetrahydro-2H-pyra-3,4,5-triol]: under setting [3], the fold induction at 10 µM came out at 2.6. For the same compound, the fold induction at 100 µM under setting [4] was 3.1.
For `Cc1cc(C)cc(Oc2ccc(O[C@H]3OC[C@H](O)[C@H](O)[C@H]3O)cc2)c1` [Example 34, (2R,3R,4S,5S)-2-(4-(3,5-dimethylphenoxy)phenoxy)tetrahydro-2H-pyran-3,4,5-triol], under setting [5], the fold induction at 10 µM was found to be 1.1. Further, the fold induction at 100 µM under setting [6] came out at 1.
Regarding `CC(C)c1ccc(-c2ccc(O[C@H]3OC[C@H](O)[C@H](O)[C@H]3O)cc2)cc1` [Example 86, (2R,3R,4S,5S)-2-((4'-isopropyl-[1,1'-biphenyl]-4-yl)oxy) tetrahydro-2 H-pyran-3,4,5-triol], the fold induction at 10 µM under setting [3] is 1.9. Further, the fold induction at 100 µM under setting [4] was 3.2.
Regarding `CC(C)c1ccc(-c2ccc(Cc3ccc(O[C@H]4OC[C@H](O)[C@H](O)[C@H]4O)cc3)cc2)cc1` [Example 52, (2R,3R,4S,5S)-2-(4-((4'-isopropyl-[1,1'-biphenyl]-4-yl)methyl)phenoxy)tetrahydro-2H-pyran-3,4,5-triol], under setting [1], the fold induction at 10 µM stood at 2. Besides, under setting [2], the fold induction at 100 µM came to 3.6.
On the same counts, the results for `CC(C)c1ccc(Oc2ccc(O[C@H]3OC[C@H](F)[C@H](O)[C@H]3O)cc2)cc1` [Example 58, (2R,3R,4R,5S)-5-fluoro-2-(4-(4-isopropylphenoxy)phenoxy)tetrahydro-2H-pyran-3,4-diol] are 2.6 and 2.2.
In the case of `CN(C)c1ccc(Cc2ccc(O[C@@H]3OC[C@H](O)[C@H](O)[C@H]3O)cc2)cc1` [Example 12, (2S,3R,4S,5S)-2-(4-(4-(dimethylamino)benzyl)phenoxy) tetrahydro-2H-pyran 3,4,5-triol], the HRE assay entry was “•”. Besides, the fold induction at 10 µM under setting [5] stood at 1.2. Further, the fold induction at 100 µM under setting [6] amounted to 1.6.
With `CC(C)c1ccc(-c2ccc(O[C@@H]3OC[C@H](O)[C@H](O)[C@H]3O)cc2)cc1` [Example 87, (2S,3R,4S,5S)-2-((4'-isopropyl-[1,1'-biphenyl]-4-yl)oxy)tetrahydro-2H-pyran-3,4,5-triol], under setting [3], the fold induction at 10 µM was 2.4. Further, under setting [4], the fold induction at 100 µM turned out to be 3.1.
Take `COc1ccc2c(ccn2-c2ccc(O[C@H]3OC[C@H](O)[C@H](O)[C@H]3O)cc2)c1` [Example 82, (2R,3R,4S,5S)-2-(4-(5-methoxy-1H-indol-1-yl)phenoxy)tetrahydro-2H-pyran-3,4,5-triol]: the fold induction at 10 µM under setting [3] was found to be 1.4. Further, under setting [4], the fold induction at 100 µM is 2.3.
As to `CC(C)c1ccc(Cc2ccc(O[C@H]3OC[C@H](O)[C@H](O)[C@H]3O)cc2F)cc1` [Example 48, (2R,3R,4S,5S)-2-(3-fluoro-4-(4-isopropylbenzyl)phenoxy)tetrahydro-2H-pyran-3,4,5-triol], the fold induction at 10 µM under setting [1] worked out at 1.3. Also, under setting [2], the fold induction at 100 µM came to 2.3.
Taken in the same sequence, the figures for `CCOc1ccc(Cc2ccc(O[C@H]3OC[C@H](O)[C@H](O)[C@H]3O)cc2)cc1` [Example 39, (2R,3R,4S,5S)-2-(4-(4-ethoxybenzyl)phenoxy) tetrahydro-2H-pyran-3,4,5-triol] were 1.1 and 1.3.
For the compound `COc1ccc(Cc2ccc(O[C@@H]3OC[C@H](O)[C@H](O)[C@H]3O)cc2)cc1` [Example 4], the HRE assay entry was “α”. In addition, the fold induction at 10 µM under setting [5] was 1.1. Further, the fold induction at 100 µM under setting [6] was less than 1.
`COc1ccc(Cc2ccc(O[C@H]3OC[C@H](O)[C@H](O)[C@H]3O)cc2F)cc1` [Example 47, (2R,3R,4S,5S)-2-(3-fluoro-4-(4-methoxybenzyl)phenoxy)tetrahydro-2H-pyran-3,4,5-trio]: the fold induction at 10 µM under setting [1] is 1. Further, the fold induction at 100 µM under setting [2] was determined as 1.2.
As for `CC(C)c1ccc2nc(-c3ccc(O[C@@H]4OC[C@H](O)[C@H](O)[C@H]4O)cc3)oc2c1` [Example 89, (2S,3R,4S,5S)-2-(4-(6-isopropylbenzo[d]oxazol-2-yl)phenoxy)tetrahydro-2H-pyran-3,4,5-triol], under setting [3], the fold induction at 10 µM turned out to be 2.8. For the same compound, the fold induction at 100 µM under setting [4] was less than 1.
On the same counts, the results for `COc1ccc2c(ccn2-c2ccc(O[C@@H]3OC[C@H](O)[C@H](O)[C@H]3O)cc2)c1` [Example 83, (2S,3R,4S,5S)-2-(4-(5-methoxy-1H-indol-1-yl)phenoxy)tetrahydro-2H-pyran-3,4,5-triol] are 2.2 and 3.3.
In the case of `CC(C)c1ccc(Oc2ccc(O[C@H]3OC[C@H](O)[C@H](O)[C@H]3N=[N+]=[N-])cc2)cc1` [Example 69, (3S,4R,5R,6R)-5-azido-6-(4-(4-isopropylphenoxy)phenoxy) tetrahydro-2H-pyra-3,4-diol], the fold induction at 10 µM under setting [1] is 1.7. Besides, the fold induction at 100 µM under setting [2] amounted to 3.
For `Cc1ccc2oc(-c3ccc(O[C@@H]4OC[C@H](O)[C@H](O)[C@H]4O)c(Cl)c3)nc2c1` [Example 100, (2S,3R,4S,5S)-2-(2-chloro-4-(5-methylbenzo[d]oxazol-2-yl)phenoxy) tetrahydro-2H-pyran-3,4,5-triol], under setting [3], the fold induction at 10 µM came to 2.7. Besides, under setting [4], the fold induction at 100 µM was 2.4.
Turning to `COc1ccc(Cc2ccc(O[C@H]3OC[C@H](O)[C@H](O)[C@H]3O)c(F)c2)cc1` [Example 46, (2R,3R,4S,5S)-2-(2-fluoro-4-(4-methoxybenzyl)phenoxy)tetrahydro-2H-pyran-3,4,5-triol], the fold induction at 10 µM under setting [1] came to 1.1. Also, under setting [2], the fold induction at 100 µM came out at 1.8.
For the compound `COc1ccc(Cc2ccc(O[C@H]3OC[C@H](O)[C@H](O)[C@H]3O)cc2)c(Cl)c1` [Example 49, (2R,3R,4S,5S)-2-(4-(2-chloro-4-methoxybenzyl)phenoxy)tetrahydro-2H-pyran-3,4,5-triol], the fold induction at 10 µM under setting [1] was found to be 1. Besides, under setting [2], the fold induction at 100 µM is 1.1.

Source of the values: patent publication EP4810508A1, “ARABINOSE DERIVATIVE COMPOUND, AND COMPOSITION COMPRISING SAME FOR PREVENTING OR TREATING DEGENERATIVE BRAIN DISEASES” (Digmbio. Inc., priority 2023, dated 2025).
